From paper PMC5274652, “Antagonizing Retinoic Acid Receptors Increases Myeloid Cell Production by Cultured Human Hematopoietic Stem Cells” (Archivum Immunologiae et Therapiae Experimentalis, 2016)

Columns and labels:
zebra fish embryos = test system: zebra fish embryos; design: method as in Wai et al. 2015; conditions: 10 nM, ref Wai et al. 2015; cited from earlier work
RARα = target: T1, RARα (Homo sapiens, UniProt P10276)
T1 sequence (P10276 183-417 limits assumed): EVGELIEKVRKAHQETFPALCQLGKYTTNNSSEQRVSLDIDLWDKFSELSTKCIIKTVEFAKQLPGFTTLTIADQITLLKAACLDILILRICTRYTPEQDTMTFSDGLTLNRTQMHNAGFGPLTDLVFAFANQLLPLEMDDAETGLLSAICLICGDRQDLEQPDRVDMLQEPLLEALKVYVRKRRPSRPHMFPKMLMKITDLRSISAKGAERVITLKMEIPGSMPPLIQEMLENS
Source text: (§1) For transactivation studies, we used CV-1 kidney fibroblast cells and LNCaP prostate adenocarcinoma cells that can be readily and reproducibly transfected with plasmids and reporters. Transactivation assays using CV-1 cells were undertaken essentially as described previously (Nagpal et al. [1995]). Briefly, CV-1 cells were transiently transfected with a plasmid-containing ERE-tk-Luc promoter-reporter construct using Lipofectamine as described in the manufacturer’s protocol (Fisher Scientific, Loughborough, UK). ERE-tk-Luc transcript comprises a luciferase reporter under control of an estrogen receptor response element. The cells were also transiently transfected with expression vector encoding a fusion protein containing the ligand-binding domain of RARα, RARβ, or RARγ fused to an estrogen receptor DNA-binding domain. Twenty-four hours after transfection, the cells were treated with retinoids under test for 16 h in culture medium-containing 2.5 % charcoal-treated FBS and lysed for determination of luciferase and β-galactosidase activities. Luciferase activity was measured using the Dual-Luciferase Reporter 100 Assay System (Promega, Southampton, UK), and β-galactosidase activity was determined by colorimetric assay. The reporter activity was normalized against β-galactosidase activity. […]

KG1 cells = test: Differentiation of KG1 cells (CD11b/CD14 flow cytometry); format: cell-based, human; conditions: KG1 cells, 1 μM combined with 10 nM 1,25D, 96 h
Description: (§2) NB-4 and KG1 cells were obtained from the German Resource Center for Biological Material (DSMZ GmbH, Braunschweig, Germany). The cells were grown in RPMI-1640 medium supplemented with 10 % fetal bovine serum (FBS), 100 U/ml penicillin, and 100 µg/ml streptomycin (Sigma, St Louis, MO, USA). Cells were grown at 37 °C in 5 % CO2.
(§3) The expression of differentiation markers at the cell surface was determined by flow cytometry. Differentiation of NB-4 and KG1 cells was measured by staining using the monoclonal antibodies CD11b-FITC and CD14-PE and appropriately labeled isotype controls (all from ImmunoTools, Friesoythe, Germany). Differentiation of human CD34^+ve cells was measured by triple-color staining using various cocktails of phycoerythrin-, fluorescein isothyocyanate-, and PerCP-monoclonal antibodies (from Becton–Dickinson, San Jose, CA, USA). The markers used to identify cell populations were as follows: CD45^+ve leukocytes; CD34^+ve/CD133^+ve HSCs; CD33^+ve/CD13^+ve immature myeloid; CD117^+ve myeloblasts and promyelocytes; CD11b^+ve/CD15^+ve mature myeloid; CD11b^+ve/CD65^+ve neutrophils; CD11b^+ve/CD14^+ve monocytes; glycophorin^+ve A erythroid cells; CD61^+ve megakaryoblasts and platelets; CD2^+ve/CD5^+ve/CD7^+ve T cells and NK cells; CD56^+ve NK cells; CD19^+ve/CD20^+ve B cells; and CD10^+ve B lymphocyte progenitors; and present on mature neutrophils and DR^+ve progenitors and present on mature monocytes. The cells were stained with 1 µl of the fluorescently labeled antibody (or the appropriate control immunoglobulin) for 1 h on ice. Next, they were washed with ice-cold phosphate-buffered saline (PBS) and suspended in 0.5 ml PBS supplemented with 0.1 % bovine serum albumin (Sigma, St Louis, MO, USA) prior to analysis on FACS Calibur flow cytometer (Becton–Dickinson, San Jose, CA, USA). The acquisition parameters were set for an isotype control. Cells were analyzed using a FACSCalibur, and data analysis was performed using the CellQuest Pro software (Becton–Dickinson, San Jose, CA, USA).

RARβ = target: T2, RARβ (Homo sapiens, UniProt P10826); test: Retinoid receptor transactivation assay in transfected CV-1 cells, RARβ; format: cell-based
T2 construct: expressed in transfected cells; host or cells: CV-1 kidney fibroblast cells
T2 sequence (P10826 183-417 limits assumed): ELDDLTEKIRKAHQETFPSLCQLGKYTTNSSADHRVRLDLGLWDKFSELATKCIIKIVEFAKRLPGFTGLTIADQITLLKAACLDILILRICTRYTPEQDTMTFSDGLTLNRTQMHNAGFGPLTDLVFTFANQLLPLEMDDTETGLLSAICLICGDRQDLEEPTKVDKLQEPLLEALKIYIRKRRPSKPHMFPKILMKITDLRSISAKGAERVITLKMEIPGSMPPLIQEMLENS
Source text: as §1

NB-4 cells = test: Differentiation of NB-4 cells (CD11b/CD14 flow cytometry); format: cell-based, human; conditions: NB-4 cells, 96 h
Description: as §2, §3

RARγ = target: T3, RARγ (Homo sapiens, UniProt P13631); test: Retinoid receptor transactivation assay in transfected CV-1 cells, RARγ; format: cell-based
T3 construct: expressed in transfected cells; host or cells: CV-1 kidney fibroblast cells
T3 sequence (P13631 185-419 limits assumed): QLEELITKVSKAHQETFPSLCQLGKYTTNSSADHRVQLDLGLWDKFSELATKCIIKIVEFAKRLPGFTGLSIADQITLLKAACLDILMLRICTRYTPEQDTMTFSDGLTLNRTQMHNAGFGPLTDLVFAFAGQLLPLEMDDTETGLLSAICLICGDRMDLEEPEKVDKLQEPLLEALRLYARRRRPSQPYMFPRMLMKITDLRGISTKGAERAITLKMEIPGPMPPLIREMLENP
Source text: as §1

concentration required to activate RARα (reporter assays) (RARα; discussion, order of magnitude) | ATRA concentration at which maximal effect on RARα transactivation is observed (RARα; transfected CV-1 cells) | ATRA concentration of maximal activation, RARβ (RARβ) | concentration at which RARγ is activated (reporter assays) (RARγ; discussion, order of magnitude) | ATRA concentration of maximal activation, RARγ (RARγ; transfected CV-1 cells) | SMILES | effect on stem cell populations and development (zebra fish embryos) | CD11b+ve/CD14+ve cells (monocyte differentiation) (KG1 cells) [%] | CD11b+ve/CD14+ve cells (monocyte differentiation) (NB-4 cells; 1 μM combined with 10 nM 1,25D) | CD11b+ve/CD14+ve cells (monocyte differentiation) (NB-4 cells; 1 μM, alone)
 |  |  |  |  | CC1(C)CCC(C)(C)c2cc(/C(=N\O)c3cc4cc(C(=O)O)ccc4[nH]3)ccc21 [AGN205327] | Stem cell populations were maintained at the expense of the development of bones and neural ganglia |  |  | 
~10^−8 M | ~10^−7 M | ~ 5 × 10^−9 M | ~10^−10 M | ~ 5 × 10^−9 M | CC1=C(/C=C/C(C)=C/C=C/C(C)=C/C(=O)O)C(C)(C)CCC1 [ATRA, all-trans retinoic acid] |  | 26 | ~ 36% | ~ 10%
